The record followed here is ChEMBL document CHEMBL1201862, “PubChem BioAssay data set” (2004).

Test systems include SK-OV-3; HOP-62; UO-31; RXF 393; M14; TK-10; HCT-15; SW-620; MDA-N; IGROV-1; A549; CAKI-1; NCI-H226; CCRF-CEM; HOP-92; OVCAR-8; MCF7; DU-145; Hs-578T; A498.
Experiment in all cases: NCI tumour cell line growth inhibition, 48 h

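Tested at 5 concentrations; 48 h exposure; 96-well plates; endpoints linearly interpolated, else capped at highest concentration. GI50 is the concentration that inhibits growth by half.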 Calls of active or inactive are those of the source. Cut-off read from the data, not from the text of the source: active = GI50 up to about 1.1 µM and inactive = higher.

For the compound `NCCNc1nc(N2CCCC2)c2nc(Cl)c(NCc3ccccc3)nc2n1`, the GI50 was 1.82 µM (inactive) in the assay on SK-OV-3; 1.67 µM (inactive) with HOP-62; 1.73 µM (inactive) in the assay on UO-31; 1.4 µM (inactive) in the assay on RXF 393; 1.67 µM (inactive) in the assay on M14; 1.67 µM (inactive) in the assay on TK-10. The GI50 in the assay with HCT-15 is 1.95 µM; with SW-620, 2.04 µM (inactive); in the assay on MDA-N it was 1.67 µM (inactive); in the assay with IGROV-1 it was 1.66 µM (inactive); with A549, 1.71 µM (inactive); with CAKI-1, 5.27 µM (inactive). The GI50 in the assay on NCI-H226 was 3.15 µM (inactive); in the assay with CCRF-CEM, 2.42 µM (inactive); with HOP-92, 1.78 µM (inactive); in the assay on OVCAR-8, 1.76 µM (inactive); with MCF7, 1.73 µM (inactive); in the assay with DU-145 it was 1.61 µM (inactive). Also, the GI50 with Hs-578T was 2.53 µM (inactive); with A498 it was 1.83 µM (inactive).
Regarding `CC(CCC(=O)O)(c1cc(Br)c(O)c(Br)c1)c1cc(Br)c(O)c(Br)c1`, the GI50 with SK-OV-3 is > 100 µM (inactive); in the assay with HOP-62 it was 96.2 µM (inactive); in the assay with UO-31 it was 66.7 µM (inactive); in the assay on RXF 393, 54.8 µM (inactive); with M14, 33.3 µM (inactive); with TK-10, > 100 µM (inactive). Moreover, the GI50 in the assay on HCT-15 is 54.3 µM; with SW-620, 84.3 µM (inactive); in the assay on MDA-N it was 70 µM (inactive); in the assay on IGROV-1, 88.3 µM (inactive); in the assay with A549, > 100 µM (inactive); with CAKI-1 it was > 100 µM (inactive). The GI50 in the assay on NCI-H226 was 31.3 µM (inactive); with CCRF-CEM it was < 0.01 µM (active); in the assay on HOP-92 it was > 100 µM (inactive); with OVCAR-8 it was 78.2 µM (inactive); with MCF7, 70.6 µM (inactive); in the assay with DU-145, 70.3 µM (inactive). The GI50 with Hs-578T is > 100 µM (inactive); with A498, 30.5 µM (inactive).
As for `COc1ccc(/C=C2\N=C3N(Cc4ccccc4)C=C(N)N3C2=O)cc1`, the GI50 in the assay with SK-OV-3 is 37.2 µM (inactive); in the assay on HOP-62, 39.3 µM (inactive); in the assay with UO-31, 46.6 µM (inactive); with RXF 393, > 100 µM (inactive); in the assay with M14, > 100 µM (inactive); in the assay with TK-10, > 100 µM (inactive). The GI50 in the assay with HCT-15 is over 100 µM; with SW-620, > 100 µM (inactive); in the assay on MDA-N it was > 100 µM (inactive); with IGROV-1, 69.3 µM (inactive); in the assay with A549, > 100 µM (inactive); in the assay on CAKI-1, > 100 µM (inactive). The GI50 in the assay with NCI-H226 is 55 µM (inactive); in the assay with CCRF-CEM, 89.5 µM (inactive); in the assay on HOP-92, 58.7 µM (inactive); with OVCAR-8, 64.6 µM (inactive); with MCF7, > 100 µM (inactive); in the assay with DU-145, > 100 µM (inactive). Moreover, the GI50 in the assay with Hs-578T was 28.8 µM (inactive); in the assay on A498, 88.1 µM (inactive).
For the compound `CC(C(=O)[O-])S(=O)(=O)O.CCc1c2cc(OC)c(OC)cc2cc2c3cc(OC)c(OC)cc3cc[n+]12`, the GI50 was 41.6 µM (inactive) with SK-OV-3; 41.7 µM (inactive) with HOP-62; 53.7 µM (inactive) in the assay on UO-31; 65.2 µM (inactive) in the assay on RXF 393; 51.1 µM (inactive) in the assay on M14; 69.7 µM (inactive) in the assay on TK-10. For the same compound, the GI50 in the assay with HCT-15 was 38.4 µM; with SW-620 it was 26.5 µM (inactive); with MDA-N, 9.89 µM (inactive); in the assay on IGROV-1, 41.5 µM (inactive); with A549, 47.4 µM (inactive); with CAKI-1, 60.4 µM (inactive). Besides, the GI50 with NCI-H226 is 9.73 µM (inactive); in the assay with CCRF-CEM, 9.14 µM (inactive); with HOP-92, 29 µM (inactive); in the assay on OVCAR-8, 20 µM (inactive); in the assay on MCF7, 9.89 µM (inactive); with DU-145, 14.2 µM (inactive). The GI50 is 4.81 µM (inactive) with Hs-578T and 53.1 µM (inactive) with A498.
Consider `CCOC(=O)CCC(C(=O)OCC)n1nc2ccc(Nc3c(C)[n+]([O-])c4ccc(Cl)cc4[n+]3[O-])cc2n1` (stereo not given), for which the GI50 in the assay on SK-OV-3 is 21.2 µM (inactive); with HOP-62, 17 µM (inactive); in the assay with UO-31 it was 15.5 µM (inactive); with RXF 393 it was 13 µM (inactive); in the assay with M14, 24.1 µM (inactive); in the assay with TK-10 it was 28.9 µM (inactive). The GI50 is 17.6 µM with HCT-15; 33.7 µM (inactive) in the assay on SW-620; 42.8 µM (inactive) in the assay on MDA-N; 42.4 µM (inactive) in the assay with IGROV-1; 17.6 µM (inactive) with A549; 33.1 µM (inactive) in the assay on CAKI-1. Besides, the GI50 was 20.3 µM (inactive) in the assay with NCI-H226; 41.2 µM (inactive) with CCRF-CEM; 20.9 µM (inactive) in the assay with HOP-92; 21.5 µM (inactive) in the assay with OVCAR-8; 24.1 µM (inactive) in the assay on MCF7; 20.1 µM (inactive) in the assay on DU-145. In addition, the values for the GI50 in the assay with Hs-578T and in the assay with A498 were 21.4 µM (inactive) and 23.6 µM (inactive), respectively.
On to `C[C@@H](CC(O)C(O)C(C)(C)O)C1CCC23CC12CCC1[C@@]2(C)CCC(O)C(C)(C)C2CC(OC2OC(CO)C(O)C(O)C2O)[C@]13C` (stereo not given in full), for which the GI50 in the assay with SK-OV-3, in the assay with HOP-62, in the assay on UO-31, in the assay with RXF 393, in the assay with M14 and with TK-10 was > 10 µM (inactive) each time. In addition, the GI50 in the assay on HCT-15 was over 10 µM; with SW-620 it was > 10 µM (inactive); with MDA-N, > 10 µM (inactive); with IGROV-1 it was > 10 µM (inactive); in the assay with A549, > 10 µM (inactive); in the assay on CAKI-1 it was > 10 µM (inactive). Moreover, the GI50 with NCI-H226, in the assay with CCRF-CEM, with HOP-92, in the assay with OVCAR-8, in the assay with MCF7 and in the assay on DU-145 was > 10 µM (inactive) each time. Besides, the GI50 in the assay with Hs-578T and in the assay with A498 was > 10 µM (inactive) each time.
